Laboratory results as given in patent publication US8952030B2, “Morphinan derivative” (priority 2011, dated 2015).
pEC50: −log10 of the molar value. Like-named read-outs stand apart in the source and are kept apart here.

Experiments:
Format in all cases: cell-based
opioid δ receptor = biological target: T1, opioid δ receptor (Homo sapiens, UniProt P41143); assay: Opioid receptor functional test (Lance Ultra cAMP Kit), δ receptor agonist activity; conditions: for Emax: read-out: δ Receptor Emax
T1 construct: expressed in transfected cells; host or cells: CHO cells
T1 sequence (P41143 whole entry): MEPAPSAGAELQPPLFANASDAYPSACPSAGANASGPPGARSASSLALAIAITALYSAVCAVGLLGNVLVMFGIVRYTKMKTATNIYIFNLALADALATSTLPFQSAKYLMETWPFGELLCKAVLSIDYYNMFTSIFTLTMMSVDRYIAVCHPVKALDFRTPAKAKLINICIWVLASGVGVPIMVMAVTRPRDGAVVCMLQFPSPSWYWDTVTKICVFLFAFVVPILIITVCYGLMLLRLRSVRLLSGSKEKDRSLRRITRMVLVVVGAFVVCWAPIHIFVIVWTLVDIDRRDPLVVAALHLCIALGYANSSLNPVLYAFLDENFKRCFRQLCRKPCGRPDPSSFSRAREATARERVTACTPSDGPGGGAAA
Description: (§1) Functional activities of the compounds of the present invention for the μ, […], and κ opioid receptors were investigated.
(§2) The test was performed according to a prescribed method by using Lance Ultra cAMP Kit (Perkin-Elmer). The agonist activities were evaluated as follows. The CHO cells expressing each opioid receptor (μ, δ, or κ) and a test compound were reacted in an assay buffer (1×HBSS, […], pH 7.4, […] IBMX (isobutylmethylxanthine), 7.5% BSA) for 30 minutes in the presence of 10 μM forskolin. Then, the cAMP detection reagent included in the kit was added, and after 1 hour, time-resolved fluorescence measurements were performed by using the EnVision plate reader (Perkin-Elmer). A dose-responce curve of the test compound was obtained from fluorescence values measured at 665 nm, and EC50 value and Emax value were calculated. The Emax value was calculated as a ratio of the maximum responce of the test compound with respect to the maximum responce of each control agent (SNC80 for δ, DAMGO for μ, U-69593 for κ) taken as 100%.
(§3) 1): Hydrochloride was used.

opioid μ receptor = biological target: T2, opioid μ receptor (Homo sapiens, UniProt P35372); assay: Opioid receptor functional test (Lance Ultra cAMP Kit), μ receptor agonist activity; conditions: for Emax at 10 µM: maximum concentration (10 μM), reaction did not reach the maximum, EC50 N.C., relative to DAMGO
T2 construct: expressed in transfected cells; host or cells: CHO cells
T2 sequence (P35372 whole entry): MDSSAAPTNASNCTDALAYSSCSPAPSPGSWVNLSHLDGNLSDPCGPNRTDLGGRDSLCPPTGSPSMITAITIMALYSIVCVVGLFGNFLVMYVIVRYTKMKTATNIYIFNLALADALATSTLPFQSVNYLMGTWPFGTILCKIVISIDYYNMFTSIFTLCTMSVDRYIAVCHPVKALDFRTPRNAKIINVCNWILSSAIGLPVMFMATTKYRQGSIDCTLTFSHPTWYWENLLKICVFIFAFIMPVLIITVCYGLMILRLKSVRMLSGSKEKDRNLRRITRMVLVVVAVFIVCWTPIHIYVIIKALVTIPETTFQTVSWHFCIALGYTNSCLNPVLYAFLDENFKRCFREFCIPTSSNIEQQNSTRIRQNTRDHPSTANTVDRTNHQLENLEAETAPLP
Description: as §1, §2, §3

opioid κ receptor = biological target: T3, opioid κ receptor (Homo sapiens, UniProt P41145); assay: Opioid receptor functional test (Lance Ultra cAMP Kit), κ receptor agonist activity; conditions: for Emax: read-out: κ Receptor Emax; for Emax at 10 µM: maximum concentration (10 μM), reaction did not reach the maximum, EC50 N.C., relative to U-69593, read-out: κ Receptor responce rate at the maximum concentration (reference value)
T3 construct: expressed in transfected cells; host or cells: CHO cells
T3 sequence (P41145 whole entry): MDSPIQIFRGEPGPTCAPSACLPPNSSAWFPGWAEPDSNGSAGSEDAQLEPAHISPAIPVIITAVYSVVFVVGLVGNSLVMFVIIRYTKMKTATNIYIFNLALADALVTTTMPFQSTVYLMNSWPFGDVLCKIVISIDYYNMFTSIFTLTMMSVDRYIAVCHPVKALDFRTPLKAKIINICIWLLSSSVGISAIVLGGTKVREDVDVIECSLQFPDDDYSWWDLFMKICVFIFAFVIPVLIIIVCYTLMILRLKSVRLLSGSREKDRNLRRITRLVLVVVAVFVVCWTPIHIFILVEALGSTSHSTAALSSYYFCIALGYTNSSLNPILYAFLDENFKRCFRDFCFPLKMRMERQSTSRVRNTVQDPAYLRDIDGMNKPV
Description: as §1, §2, §3

[1] = CHO cells expressing δ opioid receptor, 10 μM forskolin, cAMP, hydrochloride was used, read-out: δ Receptor EC50 value
[2] = maximum response relative to SNC80 taken as 100%, hydrochloride was used
[3] = hydrochloride was used, read-out: μ Receptor responce rate at the maximum concentration (reference value)
[4] = CHO cells expressing κ opioid receptor, 10 μM forskolin, cAMP, hydrochloride was used, read-out: κ Receptor EC50 value
[5] = maximum response relative to U-69593 taken as 100%, hydrochloride was used

Row | Compound | pEC50 (opioid δ receptor; [1]) | Emax (opioid δ receptor; [2]) | Emax at 10 µM (opioid μ receptor; [3]) | pEC50 (opioid κ receptor; [4]) | Emax (opioid κ receptor; [5]) | Emax at 10 µM (opioid κ receptor; hydrochloride was used) | pEC50 (opioid δ receptor) | Emax (opioid δ receptor) | Emax (opioid μ receptor; read-out: μ Receptor responce rate at the maximum concentration (reference value)) | pEC50 (opioid κ receptor) | Emax (opioid κ receptor) | pEC50 (opioid μ receptor; CHO cells expressing μ opioid receptor, 10 μM forskolin, cAMP, hydrochloride was used) | Emax (opioid μ receptor; maximum response relative to DAMGO taken as 100%, hydrochloride was used, read-out: μ Receptor Emax)
1 | Nc1ccc2c(c1)[C@]13CCN(CC4CC4)[C@H](C2)[C@]12CCC1C3[C@@H](CN1C(=O)c1ccccc1)O2 (stereo partly drawn) [Compound 308, [(1S,5aS,6R,11bR)-10-Amino-14-(cyclopropylmethyl)-4,5,6,7-tetrahydro-1H-6,11b-(iminoethano)-1,5a-epoxynaphtho[1,2-e]indol-3(2H,3aH,11cH)-yl](phenyl)methanone] | > 8.00 | 94% | 2.5% | < 7.00 | 38% | – | – | – | – | – | – | – | –
2 | NC(=O)c1ccc2c(c1)[C@]13CCN(CC4CC4)[C@H](C2)[C@]12CCC1C3[C@@H](CN1C(=O)c1ccccc1)O2 (stereo partly drawn) [Compound 306, (1S,5aS,6R,11bR)-3-benzoyl-14-(cyclopropylmethyl)-2,3,3a,4,5,6,7,11c-octahydro-1H-6,11b-(iminoethano)-1,5a-epoxynaphtho[1,2-e]indole-10-carboxamide] | > 8.00 | 84% | 2.8% | – | – | 9.5% | – | – | – | – | – | – | –
3 | Oc1ccc2c(c1)C13CCN(CC4CC4)C(C2)C12CCC1C3[C@@H](CN1c1nc(-c3ccccc3)cs1)C2 (stereo partly drawn) [Compound 242] | > 7.30 | 68% | 9.2% | < 8.00 | 47% | – | – | – | – | – | – | – | –
4 | O=C(Oc1ccccc1)N1C[C@H]2CC34CCC1C2C31CCN(CC2CC2)C4Cc2ccc(O)cc21 (stereo partly drawn) [Compound 195] | – | – | – | – | – | – | > 8.00 | 92% | 5.6% | < 9.00 | 27% | – | –
5 | O=C(c1ccco1)N1C[C@H]2O[C@@]34CC[C@@H]1[C@@H]2[C@@]31CCN(CC2CC2)[C@@H]4Cc2ccc(O)cc21 [Compound 50, [(1S,3aR,5aS,6R,11bR,11cS)-14-cyclopropylmethyl-10-hydroxy-1,2,3a,4,5,6,7,11c-octahydro-3H-6,11b-(iminoethano)-1,5a-epoxynaphtho[1,2-e]indol-3-yl](2-furyl)methanone] | > 9.00 | 82% | 5.4% | – | – | 12% | – | – | – | – | – | – | –
6 | O=C(c1ccccc1)N1C[C@H]2C[C@@]34CC[C@@H]1[C@@H]2[C@@]31CCN(CCF)[C@@H]4Cc2ccc(O)cc21 [Compound 84, [(1S,3aR,5aS,6R,11bR,11cS)-14-(2-fluoroethyl)-10-hydroxy-1,2,3a,4,5,6,7,11c-octahydro-3H-6,11b-(iminoethano)-1,5a-methanonaphtho[1,2-e]indol-3-yl](phenyl)methanone] | > 8.00 | 99% | 20% | – | – | 5.9% | – | – | – | – | – | – | –
7 | CC(C)N(Cc1ccccc1)C(=O)N1C[C@H]2C[C@@]34CCC1C2[C@@]31CCN(CC2CC2)[C@@H]4Cc2ccc(O)cc21 (stereo partly drawn) [Compound 155, (1S,5aS,6R,11bR)—N-benzyl-14-(cyclopropylmethyl)-10-hydroxy-N-isopropyl-3a,4,5,6,7,11c-hexahydro-1H-6,11b-(iminoethano)-1,5a-methanonaphtho[1,2-e]indole-3(2H)-carboxamide] | > 9.00 | 91% | 3% | < 9.00 | 47% | – | – | – | – | – | – | – | –
8 | C[C@H]1[C@H]2C[C@@]34CC[C@H]([C@@H]2[C@]32CCN(CC3CC3)[C@@H]4Cc3ccc(O)cc32)N1C(=O)c1ccccc1 [Compound 334, [(1S,2S,3aR,5aS,6R,11bS,11cS)-14-(Cyclopropylmethyl)-10-hydroxy-2-methyl-1,2,3a,4,5,6,7,11c-octahydro-3H-6,11b-(iminoethano)-1,5a-methanonaphtho[1,2-e]indol-3-yl](phenyl)methanone] | > 9.00 | 87% | 2.9% | < 9.00 | 39% | – | – | – | – | – | – | – | –
9 | Cc1cc(C)nc(N2C[C@H]3CC45CCC2C3C42CCN(CC(F)(F)c3ccccc3)C5Cc3ccc(O)cc32)n1 (stereo partly drawn) [Compound 283] | > 7.30 | 91% | – | – | – | 11% | – | – | – | – | – | < 6.30 | 101%
